T1: recombinant human lysophosphatidylcholine acyltransferase 3 (rhLPCAT3) (Homo sapiens, UniProt Q6P1A2)
T1 construct: gene LPCAT3; human LPCAT3 (BC065194.1) with HRV 3C site and C-terminal Twin-strep-tag, expressed in Sf9 cells, purified in DDM
T1 sequence (Q6P1A2 2-487): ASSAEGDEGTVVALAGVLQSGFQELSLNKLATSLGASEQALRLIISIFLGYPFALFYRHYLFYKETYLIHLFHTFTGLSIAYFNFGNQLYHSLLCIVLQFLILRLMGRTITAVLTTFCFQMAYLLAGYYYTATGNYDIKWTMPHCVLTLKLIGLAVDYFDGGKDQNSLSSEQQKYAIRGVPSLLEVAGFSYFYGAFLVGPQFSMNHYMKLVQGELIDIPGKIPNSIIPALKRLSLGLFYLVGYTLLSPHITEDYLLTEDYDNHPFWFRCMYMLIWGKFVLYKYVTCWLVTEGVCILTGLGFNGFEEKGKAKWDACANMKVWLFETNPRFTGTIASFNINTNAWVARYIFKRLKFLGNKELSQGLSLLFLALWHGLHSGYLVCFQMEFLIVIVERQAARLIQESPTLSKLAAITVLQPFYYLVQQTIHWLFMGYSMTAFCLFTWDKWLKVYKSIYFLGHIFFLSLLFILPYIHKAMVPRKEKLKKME


Key:
[1] = target: T1, recombinant human lysophosphatidylcholine acyltransferase 3 (rhLPCAT3); assay: reversed-phase HPLC fluorescence assay of NBD-PC formation by purified rhLPCAT3; assay type: biochemical
[2] = substrate: CCCCC/C=C\C/C=C\C/C=C\C/C=C\CCCC(=O)SCCNC(=O)CCNC(=O)[C@H](O)C(C)(C)COP(=O)(O)OP(=O)(O)OC[C@H]1O[C@@H](n2cnc3c(N)ncnc32)[C@H](O)[C@@H]1OP(=O)(O)O; assay: bisubstrate kinetics (Km) of purified enzyme, reversed-phase HPLC with fluorescence detection; assay type: biochemical, Homo sapiens

IC50 [1] [µM]	Molecule	Km [2] [µM]
174 ± 1.04	CCCOC(=O)c1ccc(N2C(=O)C(Cl)=C(Cl)C2=O)cc1 [TSI-10]	–
–	recombinant human lysophosphatidylcholine acyltransferase 3 (rhLPCAT3) (Homo sapiens) (protein, human LPCAT3 (BC065194.1) with HRV 3C site and C-terminal Twin-strep-tag, expressed in Sf9 cells, purified in DDM) ASSAEGDEGTVVALAGVLQSGFQELSLNKLATSLGASEQALRLIISIFLGYPFALFYRHYLFYKETYLIHLFHTFTGLSIAYFNFGNQLYHSLLCIVLQFLILRLMGRTITAVLTTFCFQMAYLLAGYYYTATGNYDIKWTMPHCVLTLKLIGLAVDYFDGGKDQNSLSSEQQKYAIRGVPSLLEVAGFSYFYGAFLVGPQFSMNHYMKLVQGELIDIPGKIPNSIIPALKRLSLGLFYLVGYTLLSPHITEDYLLTEDYDNHPFWFRCMYMLIWGKFVLYKYVTCWLVTEGVCILTGLGFNGFEEKGKAKWDACANMKVWLFETNPRFTGTIASFNINTNAWVARYIFKRLKFLGNKELSQGLSLLFLALWHGLHSGYLVCFQMEFLIVIVERQAARLIQESPTLSKLAAITVLQPFYYLVQQTIHWLFMGYSMTAFCLFTWDKWLKVYKSIYFLGHIFFLSLLFILPYIHKAMVPRKEKLKKME	11.03 ± 0.51
